Test results taken from doi:10.1101/2024.05.29.596450v1 (biorxiv, 2024).

System: Staphylococcus aureus MRSA (ATCC BAA-44)
Experiment: microbe, parasite or virus in culture
Set-up: species or system Staphylococcus aureus ATCC BAA-44
Settings: ATCCBAA44|MRSA, 18 h, read-out: %viability

## CC1(C)S[C@@H]2[C@H](NC(=O)[C@H](N)c3ccc(O)cc3)C(=O)N2[C@H]1C(=O)O [Amoxicillin]
  viability at 50 µM: 85%
